# Source: ChEMBL document CHEMBL2157907, “Optimization of anti-Trypanosoma cruzi oxadiazoles leads to identification of compounds with efficacy in infected mice” (Bioorg Med Chem, 2012)
# Calls of active or inactive are those of the source. No cut-off for these calls is given here.
# What was measured:
# [1] = Cytotoxicity against BALB/c mouse splenocytes after 24 hrs by [3H]-thymidine incorporation assay; type: cell-based, Splenocyte; conditions: read-out: LC50
# [2] = target: Cruzipain (Trypanosoma cruzi) (UniProt P25779); test: Inhibition of Trypanosoma cruzi cruzain using Z-Phe-Arg-aminomethylcoumarin as substrate at 100 uM after 10 mins
# [3] = target: Cruzipain (Trypanosoma cruzi, UniProt P25779); test: Inhibition of Trypanosoma cruzi cruzain using Z-Phe-Arg-aminomethylcoumarin as substrate after 10 mins
# [4] = system: Trypanosoma cruzi; test: Antitrypanosomal activity against epimastigotes of Trypanosoma cruzi Y after 5 days; type: functional, organism-based; conditions: 120 h
# [5] = system: Trypanosoma cruzi; test: Antitrypanosomal activity against trypomastigotes of Trypanosoma cruzi Y infected in rhesus monkey LLC-MK2 cells assessed parasite viability after 24 hrs; type: functional, organism-based; conditions: LLC-MK2, 24 h
# [6] = system: Trypanosoma cruzi; test: Antitrypanosomal activity against trypomastigotes of Trypanosoma cruzi Y infected in BALB/c mouse assessed as reduction of parasite level in blood at 100 mg/kg, po administered after 5 days of postinfection qd for 5 days; type: functional, organism-based; set-up: dose 100 mg/kg
# Cruzipain (Trypanosoma cruzi), sequence (P25779 123-467 limits assumed): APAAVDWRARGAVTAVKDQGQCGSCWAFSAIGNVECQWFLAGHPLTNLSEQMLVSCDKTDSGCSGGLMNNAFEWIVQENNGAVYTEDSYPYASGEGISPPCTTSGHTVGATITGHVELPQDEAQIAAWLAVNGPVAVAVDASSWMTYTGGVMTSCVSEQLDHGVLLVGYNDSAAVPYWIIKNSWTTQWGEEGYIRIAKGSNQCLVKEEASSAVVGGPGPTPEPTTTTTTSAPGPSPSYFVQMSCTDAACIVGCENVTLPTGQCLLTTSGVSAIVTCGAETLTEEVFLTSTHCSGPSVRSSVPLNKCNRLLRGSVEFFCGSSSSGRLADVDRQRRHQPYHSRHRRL
# Cruzipain, sequence (P25779 whole entry): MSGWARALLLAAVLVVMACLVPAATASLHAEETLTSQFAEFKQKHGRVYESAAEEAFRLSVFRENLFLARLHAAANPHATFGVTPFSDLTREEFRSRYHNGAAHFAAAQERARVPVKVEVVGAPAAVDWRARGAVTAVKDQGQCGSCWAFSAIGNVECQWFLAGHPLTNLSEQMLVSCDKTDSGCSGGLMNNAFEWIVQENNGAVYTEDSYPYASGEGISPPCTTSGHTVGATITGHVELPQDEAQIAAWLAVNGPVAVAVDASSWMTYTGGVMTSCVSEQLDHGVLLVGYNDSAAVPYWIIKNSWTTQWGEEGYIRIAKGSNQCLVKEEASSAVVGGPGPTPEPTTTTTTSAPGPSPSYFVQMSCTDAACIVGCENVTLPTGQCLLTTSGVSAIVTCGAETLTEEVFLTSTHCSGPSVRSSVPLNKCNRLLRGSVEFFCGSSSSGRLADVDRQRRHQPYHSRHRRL
Compound,CC50 at 24 h [1] [µg/mL],inhibition [2] [%],other results
COc1cc(/C=N/NC(=O)c2nc(-c3ccc(F)cc3)no2)ccc1O,> 100,63,–
CN(C)c1ccc(C(=C2C=CC(=[N+](C)C)C=C2)c2ccc(N(C)C)cc2)cc1 [GENTIAN VIOLET],0.11,–,–
COc1ccc(-c2noc(C(=O)N/N=C/c3ccc(O)c(OC)c3)n2)cc1,> 100,35,–
O=C(N/N=C/c1ccc2c(c1)OCO2)c1nc(-c2ccccc2)no1,> 100,32,–
COc1cc(/C=N/NC(=O)c2nc(-c3ccc(C)cc3)no2)ccc1O,> 100,14,–
O=C(N/N=C/c1ccc2c(c1)OCO2)c1nc(-c2ccc([N+](=O)[O-])cc2)no1,> 100,–,–
COc1cc(/C=N/NC(=O)c2nc(-c3ccc(Br)cc3)no2)ccc1O,> 100,100,IC50 [3]: 0.2 µM
O=C(Cn1ccnc1[N+](=O)[O-])NCc1ccccc1 [BENZNIDAZOLE],–,–,IC50 [4]: 7.5 µM; IC50 [5]: 11.3 µM; Activity [6]: Active
COc1cc(/C=N/NC(=O)c2nc(-c3ccccc3)no2)ccc1O,> 100,47,–
